We go through 1 compound from patent US7531555B2, “Compositions and methods for selective inhibition of nicotine acetylcholine receptors” (University of Florida Research Foundation, Inc., priority 2003, dated 2009).

One assay addresses T1, Rat α3β2β3 (Rattus norvegicus, UniProt P04757+P12390+P12391).
T1 construct: expressed in transfected cells; host or cells: Xenopus laevis oocytes injected with subunit cRNAs; clones from Dr. Jim Boulter (UCLA)
Put plainly: Voltage clamp of Xenopus oocytes expressing α3β2β3 nAChR. It is filed as cell-based. Here is the method: Mature (>9 cm) female Xenopus laevis African frogs (NASCO, Ft. Atkinson, Wis.) were used as a source of oocytes. Prior to surgery, frogs were anesthetized by placing the animal in a 1.5 g/l solution of MS222 (3-aminobenzoic acid ethyl ester) for 30 minutes. Oocytes were removed from an incision made in the abdomen.
In order to remove the follicular cell layer, harvested oocytes were treated with 1.25 mg/ml collagenase from Worthington Biochemical Corporation (Freehold, N.J.) for 2 hours at room temperature in calcium-free Barth's solution (88 mM NaCl, 10 mM HEPES pH 7.6, 0.33 mM MgSO4, 0.1 mg/ml gentamicin sulfate). Subsequently, stage 5 oocytes were isolated and injected with 50 nl (5-20 ng) each of the appropriate subunit cRNAs. Recordings were made 2 to 15 days after injection.
Rat neuronal nAChR clones and mouse muscle nAChR cDNA clones were used. The wild-type clones were obtained from Dr. Jim Boulter (UCLA). The rat α6/3 (Dowell et al. J Neurosci, 2003, 23:8445-8452) clone was obtained from Michael McIntosh (University of Utah) and expressed in Xenopus oocytes in combinations with rat β2 and β3. […] The TM2 domain is understood to line the pore of the channel, with alpha helix structure. The 7′ position may actually be directed away from the actual pore lining, but this residue is highly conserved in all of the nAChR. It is valine in all of them except α9 (isoleucine) and β1, where it is alanine. The TM2 mutation in the α6/3 chimera was corrected by using QuickChange (Stratagene) according to their protocols. The corrected α6/3 chimera sequence was confirmed by restriction diagnostics and by automated fluorescent sequencing (University of Florida core facility). The corrected clone was expressed as above in Xenopus oocytes with β2 and β3 and compared to the wild-type α3 co-expressed with β2 and β3.
After linearization and purification of cloned cDNAs, RNA transcripts were prepared in vitro using the appropriate mMessage mMachine kit from Ambion Inc. (Austin, Tex.).
Electrophysiology. The majority of experiments were conducted using OpusXpress 6000A (Axon Instruments, Union City Calif.). OpusXpress is an integrated system that provides automated impalement and voltage clamp of up to eight oocytes in parallel. Cells were automatically perfused with bath solution, and agonist solutions were delivered from a 96-well plate. Both the voltage and current electrodes were filled with 3 M KCl. The agonist solutions were applied via disposable tips, which eliminated any possibility of cross-contamination. Drug applications alternated between ACh controls and experimental applications. Flow rates were set at 2 ml/min for experiments with α7 receptors and 4 ml/min for other subtypes. Cells were voltage-clamped at a holding potential of −60 mV. Data were collected at 50 Hz and filtered at 20 Hz. Agonist applications were 12 seconds in duration followed by 181-second washout periods for α7 receptors and 8 seconds with 241-second wash periods for other subtypes. For some experiments, particularly under conditions where residual inhibition precluded making repeated measurements from single cells (see below), manual oocyte recordings were made as previously described (Papke and Papke Br J of Pharmacol, 2002, 137:49-61). In brief, Warner Instruments (Hamden, Conn.) OC-725C oocyte amplifiers were used, and data were acquired with a minidigi or digidata 1200A with pClamp9 software (Axon Instruments). Sampling rates were between 10 and 20 Hz and the data were filtered at 6 Hz. […]

The next assay relates to mice. Put plainly: Body temperature, nicotine-induced hypothermia. The assay is classed as in vivo. The following applies: for Body temperature Δ° C. (Mean ± SEM): s.c. On the procedure: Animals. Male ICR mice (20-25 g) obtained from Harlan Laboratories (Indianapolis, Ind.) were used throughout the study. Animals were housed in groups of six and had free access to food and water. Adult, male Long-Evans rats (350-460 g), obtained from Harlan (Dublin, Va.), were individually housed in a temperature-controlled (20-22° C.) environment with a 12-hour light-dark cycle (lights on at 7 a.m.). Rats were maintained within the indicated weight range by restricted post-session feeding and had ad libitum water in their home cages. Rats were drug-naive at the beginning of the study. Animals were housed in an AALAC approved facility and the study was approved by the Institutional Animal Care and Use Committee of Virginia Commonwealth University. Body temperature. Rectal temperature was determined by a thermistor probe (inserted 24 mm) and digital thermometer (Yellow Springs Instrument Co., Yellow Springs, Ohio). […] The difference in rectal temperature before and after treatment was calculated for each mouse. The ambient temperature of the laboratory varied from 21-24° C. from day to day. […] Psychopharmacology (Berl), 1995, 117:67-73). Eight to twelve mice were tested in each treatment group and each animal was tested only once. Statistical analysis. Statistical analysis of all analgesic and in vivo studies was performed using either t-test or analysis of variance (ANOVA) with Tukey's test post hoc test when appropriate.

A word on the IC50: it is the midpoint of a concentration-inhibition curve.

Where two headings read alike, the source gives them in different places.

T1 sequence (P04757 26-499): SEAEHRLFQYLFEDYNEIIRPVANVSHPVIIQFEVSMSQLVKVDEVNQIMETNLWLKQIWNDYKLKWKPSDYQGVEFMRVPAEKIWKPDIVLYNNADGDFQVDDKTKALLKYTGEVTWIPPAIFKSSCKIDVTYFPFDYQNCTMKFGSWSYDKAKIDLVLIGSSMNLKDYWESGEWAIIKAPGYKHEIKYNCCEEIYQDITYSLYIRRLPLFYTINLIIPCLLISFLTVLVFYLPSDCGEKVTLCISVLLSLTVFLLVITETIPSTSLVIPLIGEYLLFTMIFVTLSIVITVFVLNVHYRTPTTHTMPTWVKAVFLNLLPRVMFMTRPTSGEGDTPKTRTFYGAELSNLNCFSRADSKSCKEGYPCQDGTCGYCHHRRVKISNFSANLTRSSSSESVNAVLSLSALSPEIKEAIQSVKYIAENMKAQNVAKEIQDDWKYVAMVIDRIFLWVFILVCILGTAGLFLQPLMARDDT
T1 sequence (P12390 25-500): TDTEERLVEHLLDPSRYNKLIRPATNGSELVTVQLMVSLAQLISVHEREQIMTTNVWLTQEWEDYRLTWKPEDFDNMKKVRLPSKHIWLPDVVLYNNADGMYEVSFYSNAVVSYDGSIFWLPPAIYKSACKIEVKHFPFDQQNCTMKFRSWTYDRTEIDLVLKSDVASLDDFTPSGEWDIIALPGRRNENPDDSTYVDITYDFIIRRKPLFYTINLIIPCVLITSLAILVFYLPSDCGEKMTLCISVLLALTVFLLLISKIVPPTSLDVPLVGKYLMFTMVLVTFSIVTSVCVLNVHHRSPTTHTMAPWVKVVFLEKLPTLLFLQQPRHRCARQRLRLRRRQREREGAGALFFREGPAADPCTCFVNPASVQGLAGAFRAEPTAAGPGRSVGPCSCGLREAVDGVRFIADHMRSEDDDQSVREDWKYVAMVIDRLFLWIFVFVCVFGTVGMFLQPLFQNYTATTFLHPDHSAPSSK
T1 sequence (P12391 31-464): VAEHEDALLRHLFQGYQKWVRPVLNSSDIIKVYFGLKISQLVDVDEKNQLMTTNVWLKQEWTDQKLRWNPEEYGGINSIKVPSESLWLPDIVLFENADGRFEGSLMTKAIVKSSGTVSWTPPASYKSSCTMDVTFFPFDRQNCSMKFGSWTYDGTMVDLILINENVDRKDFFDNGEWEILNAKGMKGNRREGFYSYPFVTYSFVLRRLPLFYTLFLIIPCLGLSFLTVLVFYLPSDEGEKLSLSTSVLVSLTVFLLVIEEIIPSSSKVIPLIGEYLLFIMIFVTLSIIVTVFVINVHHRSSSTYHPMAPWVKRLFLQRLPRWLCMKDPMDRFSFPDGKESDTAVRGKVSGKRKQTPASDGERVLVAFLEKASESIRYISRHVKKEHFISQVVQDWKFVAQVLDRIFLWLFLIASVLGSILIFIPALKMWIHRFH

Take `CCCCCCC(=O)OC1CC(C)(C)NC(C)(C)C1` [TMPH, 2,2,6,6-tetramethylpiperidin-4-yl heptanoate]: the IC50 at Rat α3β2β3 (decrease in net charge, 100 μM ACh co-applied with TMPH, read-out: IC50 (area)) was found to be 2.7 ± 0.6 µM; at Rat α3β2β3 (decrease in peak current amplitude, 100 μM ACh co-applied with TMPH, read-out: IC50 (peak)), 120 ± 80 µM; on Rat α3β2β3 (inhibition still present after 5-minute wash, read-out: IC50 (recovery)), 4.3 ± 1.5 µM. Also, the “IC50 net charge/IC50 peak” value on Rat α3β2β3 (ratio) is 0.025. For the same compound, the “IC50 recovery/IC50 net charge” value on Rat α3β2β3 (ratio) is 1.6. In the assay on mice (TMPH 20 mg/kg, nicotine 2.5 mg/kg), the “effect on nicotine-induced hypothermia” value was “not blocked”. The “Body temperature Δ° C. (Mean ± SEM)” value is −5.2 ± 0.4 °C in the assay with mice (TMPH (20 mg/kg)/Nicotine (1.5 mg/kg)) and −1.0 ± 0.2 °C with mice (TMPH (20 mg/kg)/Saline). Also, in the assay with mice (TMPH @ 20 mg/kg), the “blockade of nicotine-induced hypothermia” value is given as 0% blockade @ 20. The “effect of TMPH by itself on body temperature” value in the assay with mice (s.c. injection, at the indicated doses and times) is on record as “did not have a significant effect”.
